Laboratory results reported in BindingDB's records for doi:10.1124/mol.63.6.1329 (University of Milan, 2003).
pKi: −log10 of the molar value.

Biological target: Neuronal acetylcholine receptor subunit alpha-6 (Gallus gallus, UniProt P49581)
Sequence (P49581 whole entry): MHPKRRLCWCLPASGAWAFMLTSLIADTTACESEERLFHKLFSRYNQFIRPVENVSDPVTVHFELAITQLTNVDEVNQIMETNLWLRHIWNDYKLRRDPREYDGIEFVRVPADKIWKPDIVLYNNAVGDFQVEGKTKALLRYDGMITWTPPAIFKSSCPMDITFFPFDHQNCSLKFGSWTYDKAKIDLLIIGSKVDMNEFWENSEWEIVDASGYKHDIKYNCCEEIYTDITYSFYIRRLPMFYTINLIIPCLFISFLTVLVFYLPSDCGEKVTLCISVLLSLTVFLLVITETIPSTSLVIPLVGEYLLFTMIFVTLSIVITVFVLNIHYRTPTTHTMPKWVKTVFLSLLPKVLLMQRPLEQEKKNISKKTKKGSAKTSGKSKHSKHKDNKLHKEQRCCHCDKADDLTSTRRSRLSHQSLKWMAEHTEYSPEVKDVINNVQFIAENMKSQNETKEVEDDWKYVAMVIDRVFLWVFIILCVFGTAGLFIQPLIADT

| Structure (SMILES) | pKi |
| --- | --- |
| C[N+](C)(C)CCCCCC[N+](C)(C)C [Hexamethoniumdibromide] | < 5.00 |
| CC[N+](CC)(CC)CCOc1ccc(C=Cc2ccccc2)cc1 [CAS_17360] | 5.34 |
| CN1CCC[C@H]1c1cccnc1 [(R,S)-nicotine] | 7.70 |
| COC1CC=C2CCN3CCC4=C(CC(=O)OC4)C23C1 (configuration not stated) [NSC_31762] | 5.55 |
| C[N+](C)(C)CCCCCCCCCC[N+](C)(C)C [Decamethonium Iodide] | < 5.00 |
| COc1cc2c3cc1Oc1cc(ccc1O)CC1c4c(cc(OC)c(O)c4Oc4ccc(cc4)CC3N(C)CC2)CC[N+]1(C)C (configuration not stated) [CAS_64645] | 5.11 |
| CC(C)C[C@@H]1NC(=O)[C@H](CC(N)=O)NC(=O)[C@H](CO)NC(=O)[C@H](Cc2cnc[nH]2)NC(=O)[C@H](CCC(=O)O)NC(=O)[C@H](CC(C)C)NC(=O)[C@H](Cc2cnc[nH]2)NC(=O)[C@@H]2CSSC[C@H](NC(=O)CN)C(=O)N[C@@H](CSSC[C@@H](C(N)=O)NC1=O)C(=O)N[C@@H](CO)C(=O)N[C@@H](CC(N)=O)C(=O)N1CCC[C@H]1C(=O)N[C@@H](C(C)C)C(=O)N2 [Gly-L-Cys(1)-L-Cys(2)-L-Ser-L-Asn-L-Pro-L-Val-L-Cys(1)-L-His-L-Leu-L-Glu-L-His-L-Ser-L-Asn-L-Leu-L-Cys(2)-NH2] | 7.18 |
